Experimental data: article PMC9527238, “Glutamate and GABAA receptor crosstalk mediates homeostatic regulation of neuronal excitation in the mammalian brain” (Signal Transduction and Targeted Therapy, 2022)

Key:
Assay type in all cases: cell-based
α1^K104D β2 γ2 GABAAR = molecular target: T1, α1^K104D β2 γ2 GABAAR (Rattus norvegicus, UniProt P62813+P63138, K131D); assay: Patch clamp, HEK293, mutant GABAAR; settings: Glu 1 mM; GABA 1 µM; normalized to wild-type α1β2γ2
T1 construct: expressed in transfected cells; host or cells: HEK293
T1 sequence (P62813 28-455 K131D): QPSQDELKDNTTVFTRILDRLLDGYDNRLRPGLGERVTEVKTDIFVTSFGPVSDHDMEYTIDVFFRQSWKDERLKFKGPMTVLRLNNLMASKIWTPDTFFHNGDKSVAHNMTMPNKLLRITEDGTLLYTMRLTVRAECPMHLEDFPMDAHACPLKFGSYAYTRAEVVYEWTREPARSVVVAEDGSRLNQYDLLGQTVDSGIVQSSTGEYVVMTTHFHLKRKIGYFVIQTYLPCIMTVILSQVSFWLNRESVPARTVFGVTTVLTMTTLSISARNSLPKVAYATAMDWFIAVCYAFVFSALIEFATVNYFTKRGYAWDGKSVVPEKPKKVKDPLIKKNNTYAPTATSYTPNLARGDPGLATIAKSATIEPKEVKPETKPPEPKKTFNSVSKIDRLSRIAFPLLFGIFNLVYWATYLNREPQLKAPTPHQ
T1 sequence (P63138 26-474): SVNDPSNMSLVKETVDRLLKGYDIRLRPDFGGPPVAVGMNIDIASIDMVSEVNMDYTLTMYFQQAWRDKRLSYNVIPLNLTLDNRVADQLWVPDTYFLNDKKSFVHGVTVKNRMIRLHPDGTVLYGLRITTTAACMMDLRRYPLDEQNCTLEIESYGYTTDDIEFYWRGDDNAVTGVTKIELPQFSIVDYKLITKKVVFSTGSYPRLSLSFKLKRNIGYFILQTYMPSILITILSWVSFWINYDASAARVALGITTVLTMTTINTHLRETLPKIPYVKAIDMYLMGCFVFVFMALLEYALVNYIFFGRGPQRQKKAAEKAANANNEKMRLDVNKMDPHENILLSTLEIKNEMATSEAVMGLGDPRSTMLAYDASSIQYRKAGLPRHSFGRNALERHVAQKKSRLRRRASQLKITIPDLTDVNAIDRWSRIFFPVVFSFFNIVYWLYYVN
T1 sequence (P18508 39-466 partner): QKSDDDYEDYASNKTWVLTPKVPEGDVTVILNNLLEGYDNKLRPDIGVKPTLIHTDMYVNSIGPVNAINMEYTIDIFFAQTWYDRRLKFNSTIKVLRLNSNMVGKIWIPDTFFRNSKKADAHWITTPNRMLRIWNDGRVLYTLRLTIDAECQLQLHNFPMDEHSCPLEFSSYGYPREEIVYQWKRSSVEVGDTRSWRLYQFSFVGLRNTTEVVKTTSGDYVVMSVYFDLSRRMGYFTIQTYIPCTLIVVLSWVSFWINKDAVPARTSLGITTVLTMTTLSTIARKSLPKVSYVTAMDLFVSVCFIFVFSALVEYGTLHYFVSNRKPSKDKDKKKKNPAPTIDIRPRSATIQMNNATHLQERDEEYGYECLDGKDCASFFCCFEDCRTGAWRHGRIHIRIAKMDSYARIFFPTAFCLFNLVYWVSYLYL
Description: (§1) The subunits are color-coded individually. The boxed regions are further enlarged in the middle panels, highlighting the predicted glutamate binding pocket in the α+ and β− interface, just below the loop C. […] Relative potentiation was obtained by normalizing potentiation observed in the mutated receptor to that in the respective wild-type receptor.
(§2) To positively confirm one of these two putative binding sites involved in glutamate binding, we performed a systemic mutational analysis of critical amino acids around these two sites followed by electrophysiological characterizations of their impacts on glutamate potentiation in HEK293 cells expressing wild-type or mutated α1β2γ2 GABAARs (Table 1).
(§3) HEK293 cells were cultured in DMEM (Invitrogen) supplemented with 10% fetal bovine serum. Cells were grown to 40–60% confluence and transiently transfected using Lipofectamine 2000 (Invitrogen) with 1:0.5–1 plasmid/lipid ratio. Cells were transfected with a pBK-CMV expression vector containing a rat recombinant GABAAR α, β or γ subunits. Co-transections were done with a plasmid ratio of 1:1 αβ and 2:2:1 for αβγ subunit combinations, respectively. pcDNA3.1-GFP was also co-transfected along with GABAAR subunits as a transfected marker in order to facilitate the visualization of the transfected cells during electrophysiological experiments. Cells were re-plated on glass coverslips after 15–20 h transfection and were cultured for an additional 15–24 h before whole-cell patch-clamp recordings.
(§4) The site-directed mutagenesis of α, β or γ subunits were performed by using the QuikChange method (Stratagene). […] Wild-type or mutant subunits were transfected in HEK293 cells and subjected to electrophysiology examinations.
(§5) Whole-cell patch-clamp recordings were performed under voltage-clamp mode using an Axopatch 200B or 1D patch-clamp amplifier (Molecular Devices) on HEK293 cells and cultured neurons. Whole-cell currents were recorded at a holding potential of −60 mV, and signals were filtered at 2 kHz, digitized at 10 kHz (Digidata 1322 A). Recording pipettes (3–5 MΩ) were filled with the intracellular solution that contained (mM): CsCl 140, HEPES 10, Mg-ATP 4, QX-314 5, pH 7.20; osmolarity, 290–295 mOsm. BAPTA (10 mM) was added in the intracellular solution. The coverslips were continuously superfused with the extracellular solution containing (mM): NaCl 140, KCl 5.4, HEPES 10, MgCl2 1.0, CaCl2 1.3, glucose 20, pH 7.4; osmolarity, 305–315 mOsm. […] Dose–response curves were created by fitting data to Hill equation: I = Imax/[1 + (EC50/[A])^n], where I is the current, Imax is the maximum current, [A] is a given concentration of agonist, n is the Hill coefficient. […] All experiments were performed at room temperature.

α1 β2^E181G γ2 GABAAR = molecular target: T2, α1 β2^E181G γ2 GABAAR (Rattus norvegicus, UniProt P62813+P63138, E206G); assay: Patch clamp, HEK293, mutant GABAAR; settings: normalized to wild-type α1β2γ2; for Relative potentiation: glutamate 100 μM co-applied with GABA 1 μM
T2 construct: expressed in transfected cells; host or cells: HEK293
T2 sequence (P62813 28-455): as the sequence (P62813 28-455 K131D) above, with D104K counted along it
T2 sequence (P63138 26-474 E206G): as the sequence (P63138 26-474) above, with E181G counted along it
T2 sequence (P18508 39-466 partner): as the sequence (P18508 39-466 partner) above
Description: as §1, §2, §3, §4, §5

α1/β1/γ2 GABAAR = molecular target: T3, α1/β1/γ2 GABAAR (Rattus norvegicus, UniProt P15431+P62813); assay: Patch clamp, HEK293, β1-containing GABAAR; settings: wild-type α1/β1/γ2
T3 construct: expressed in transfected cells; host or cells: HEK293
T3 sequence (P62813 28-455): as the sequence (P62813 28-455 K131D) above, with D104K counted along it
T3 sequence (P15431 26-474): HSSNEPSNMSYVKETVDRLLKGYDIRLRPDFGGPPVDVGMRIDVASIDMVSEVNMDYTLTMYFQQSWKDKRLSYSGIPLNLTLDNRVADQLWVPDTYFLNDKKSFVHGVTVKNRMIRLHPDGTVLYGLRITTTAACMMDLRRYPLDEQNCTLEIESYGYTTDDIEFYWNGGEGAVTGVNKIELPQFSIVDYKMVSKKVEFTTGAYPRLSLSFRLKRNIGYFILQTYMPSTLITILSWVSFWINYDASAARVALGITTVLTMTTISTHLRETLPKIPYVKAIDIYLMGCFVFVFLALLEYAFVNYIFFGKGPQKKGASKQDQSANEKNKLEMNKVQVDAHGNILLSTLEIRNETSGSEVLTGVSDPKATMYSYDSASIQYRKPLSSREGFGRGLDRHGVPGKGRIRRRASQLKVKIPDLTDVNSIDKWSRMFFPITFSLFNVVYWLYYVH
T3 sequence (P18508 39-466 partner): as the sequence (P18508 39-466 partner) above

α1^E208A β2 γ2 GABAAR = molecular target: T4, α1^E208A β2 γ2 GABAAR (Rattus norvegicus, UniProt P62813+P63138, E235A); assay: Patch clamp, HEK293, mutant GABAAR; settings: glutamate 100 μM co-applied with GABA 1 μM; normalized to wild-type α1β2γ2
T4 construct: expressed in transfected cells; host or cells: HEK293
T4 sequence (P62813 28-455 E235A): as the sequence (P62813 28-455 K131D) above, with D104K, E208A counted along it
T4 sequence (P63138 26-474): as the sequence (P63138 26-474) above
T4 sequence (P18508 39-466 partner): as the sequence (P18508 39-466 partner) above
Protocol: as §2, §3, §4, §5

α1^F99A β2 γ2 GABAAR = molecular target: T5, α1^F99A β2 γ2 GABAAR (Rattus norvegicus, UniProt P62813+P63138, F126A); assay: Patch clamp, HEK293, mutant GABAAR; settings: glutamate 100 μM co-applied with GABA 1 μM; normalized to wild-type α1β2γ2
T5 construct: expressed in transfected cells; host or cells: HEK293
T5 sequence (P62813 28-455 F126A): as the sequence (P62813 28-455 K131D) above, with F99A, D104K counted along it
T5 sequence (P63138 26-474): as the sequence (P63138 26-474) above
T5 sequence (P18508 39-466 partner): as the sequence (P18508 39-466 partner) above
Protocol: as §2, §3, §4, §5

α1 β2^V177A γ2 GABAAR = molecular target: T6, α1 β2^V177A γ2 GABAAR (Rattus norvegicus, UniProt P62813+P63138, V202A); assay: Patch clamp, HEK293, mutant GABAAR; settings: glutamate 100 μM co-applied with GABA 1 μM; normalized to wild-type α1β2γ2
T6 construct: expressed in transfected cells; host or cells: HEK293
T6 sequence (P62813 28-455): as the sequence (P62813 28-455 K131D) above, with D104K counted along it
T6 sequence (P63138 26-474 V202A): as the sequence (P63138 26-474) above, with V177A counted along it
T6 sequence (P18508 39-466 partner): as the sequence (P18508 39-466 partner) above
Protocol: as §2, §3, §4, §5

α1^S158A β2 γ2 GABAAR = molecular target: T7, α1^S158A β2 γ2 GABAAR (Rattus norvegicus, UniProt P62813+P63138, S185A); assay: Patch clamp, HEK293, mutant GABAAR; settings: glutamate 100 μM co-applied with GABA 1 μM; normalized to wild-type α1β2γ2
T7 construct: expressed in transfected cells; host or cells: HEK293
T7 sequence (P62813 28-455 S185A): as the sequence (P62813 28-455 K131D) above, with D104K, S158A counted along it
T7 sequence (P63138 26-474): as the sequence (P63138 26-474) above
T7 sequence (P18508 39-466 partner): as the sequence (P18508 39-466 partner) above
Protocol: as §2, §3, §4, §5

α1^Y159A β2 γ2 GABAAR = molecular target: T8, α1^Y159A β2 γ2 GABAAR (Rattus norvegicus, UniProt P62813+P63138, Y186A); assay: Patch clamp, HEK293, mutant GABAAR; settings: glutamate 100 μM co-applied with GABA 1 μM; normalized to wild-type α1β2γ2
T8 construct: expressed in transfected cells; host or cells: HEK293
T8 sequence (P62813 28-455 Y186A): as the sequence (P62813 28-455 K131D) above, with D104K, Y159A counted along it
T8 sequence (P63138 26-474): as the sequence (P63138 26-474) above
T8 sequence (P18508 39-466 partner): as the sequence (P18508 39-466 partner) above
Protocol: as §2, §3, §4, §5

α1^S205A β2 γ2 GABAAR = molecular target: T9, α1^S205A β2 γ2 GABAAR (Rattus norvegicus, UniProt P62813+P63138, S232A); assay: Patch clamp, HEK293, mutant GABAAR; settings: glutamate 100 μM co-applied with GABA 1 μM; normalized to wild-type α1β2γ2
T9 construct: expressed in transfected cells; host or cells: HEK293
T9 sequence (P62813 28-455 S232A): as the sequence (P62813 28-455 K131D) above, with D104K, S205A counted along it
T9 sequence (P63138 26-474): as the sequence (P63138 26-474) above
T9 sequence (P18508 39-466 partner): as the sequence (P18508 39-466 partner) above
Protocol: as §2, §3, §4, §5

α1 β2 ^I180A γ2 GABAAR = molecular target: T10, α1 β2 ^I180A γ2 GABAAR (Rattus norvegicus, UniProt P62813+P63138, I205A); assay: Patch clamp, HEK293, mutant GABAAR; settings: glutamate 100 μM co-applied with GABA 1 μM; normalized to wild-type α1β2γ2
T10 construct: expressed in transfected cells; host or cells: HEK293
T10 sequence (P62813 28-455): as the sequence (P62813 28-455 K131D) above, with D104K counted along it
T10 sequence (P63138 26-474 I205A): as the sequence (P63138 26-474) above, with I180A counted along it
T10 sequence (P18508 39-466 partner): as the sequence (P18508 39-466 partner) above
Protocol: as §2, §3, §4, §5

[1] = molecular target: T11, GABAAR-mediated currents, β2E181G KI mice (Mus musculus, UniProt P63137, E206G); assay: Whole-cell recording of CA1 neurons, hippocampal slices of homozygous β2E181G KI mice; settings: L-Glu 50 µM; KI slices
T11 construct: from tissue; host or cells: acute hippocampal slices of homozygous β2E181G knock-in mice (C57BL/6J), CA1 neurons
T11 sequence (P63137 26-512 E206G): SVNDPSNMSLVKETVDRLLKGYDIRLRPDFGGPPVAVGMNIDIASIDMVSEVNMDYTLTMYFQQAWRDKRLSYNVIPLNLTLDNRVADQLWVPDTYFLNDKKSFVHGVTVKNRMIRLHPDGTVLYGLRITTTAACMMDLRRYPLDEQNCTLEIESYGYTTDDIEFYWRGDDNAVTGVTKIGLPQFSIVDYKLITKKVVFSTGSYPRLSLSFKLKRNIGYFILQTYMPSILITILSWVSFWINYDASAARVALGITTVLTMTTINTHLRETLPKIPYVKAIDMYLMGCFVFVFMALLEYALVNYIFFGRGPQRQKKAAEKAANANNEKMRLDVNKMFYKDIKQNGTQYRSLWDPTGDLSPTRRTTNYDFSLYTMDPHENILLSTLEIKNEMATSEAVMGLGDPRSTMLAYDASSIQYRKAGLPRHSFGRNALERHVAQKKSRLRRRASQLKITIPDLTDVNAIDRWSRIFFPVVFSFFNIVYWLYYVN
Protocol: We next determined if glutamate-mediated allosteric potentiation of GABAAR function was impaired in hippocampal slices acutely prepared from postnatal 90-day-old KI mice. Whole-cell recordings of CA1 neurons were performed under voltage clamp configuration at a holding potential of −60 mV.
Mice were deeply anesthetized with urethane (1.5 g/kg, i.p.) and transcardially perfused with ice cold sucrose hypertonic cutting solution (in mM: KCl 3.0, NaH2PO4.H2O 1.25, NaHCO3 26, Na-vitamin C 0.4, Na-lactate 2.0, Na-pyruvate 2.0, D-glucose 10.0, Sucrose 220, CaCl2 0.1, MgCl2 2, MgSO4 4.0, pH 7.4, 290–300 mOsm/l) prior to decapitation as described previously.[47] After decapitation, the brain was rapidly removed and transferred to the ice cold cutting solution bubbled with 95% O2 and 5% CO2, and acute coronal brain slices (400 μm) were prepared on a Leica vibratome (VT1200S, Germany). All brain slices were placed into a standard artificial cerebral spinal fluid (ACSF) (in mM: NaCl 124, KCl 2.8, NaH2PO4.H2O 1.25, NaHCO3 26, Na-vitamin C 0.4, Na-lactate 2.0, Na-pyruvate 2.0, D-glucose 10.0, CaCl2 2, MgSO4 1.2, pH 7.4, 290–300 mOsm/l) incubated at 35 °C for 2 h prior to recording. Field excitatory postsynaptic potential (fEPSP) recordings were performed under current-clamp mode using HEKA EPC10 patch-clamp amplifier (HEKA Electronic, Lambrecht/Pfalz, Germany). […]

N[C@@H](CCC(=O)O)C(=O)O [glutamate, Glutamate]
Relative potentiation, % of control (α1^K104D β2 γ2 GABAAR): 18.6 ± 6.3%
Relative potentiation, % of control (α1 β2^E181G γ2 GABAAR; Glu 1 mM, GABA 1 µM): 1.8 ± 9.6%
Relative potentiation (α1 β2^E181G γ2 GABAAR): 1.6 ± 11.6%
Relative potentiation (α1 β2^E181G γ2 GABAAR; listed as Glu): 1.6 ± 11.6%
potentiation of GABA-induced currents by glutamate (α1/β1/γ2 GABAAR): could also potentiate GABA-induced currents
Relative potentiation (α1^E208A β2 γ2 GABAAR): 90.9 ± 28.7%
Relative potentiation (α1^F99A β2 γ2 GABAAR): 96.4 ± 23.0%
Relative potentiation (α1 β2^V177A γ2 GABAAR): 89.5 ± 28.3%
Relative potentiation (α1^S158A β2 γ2 GABAAR): 106.9 ± 39.8%
Relative potentiation (α1^Y159A β2 γ2 GABAAR): 90.8 ± 26.7%
Relative potentiation (α1^S205A β2 γ2 GABAAR): 113.1 ± 33.0%
Relative potentiation (α1 β2 ^I180A γ2 GABAAR): 18.8 ± 12.9%
eIPSCs relative to baseline [1]: 114.2 ± 9.9%
